Results reported in patent US12729377B2, “RNAi agents and compositions for inhibiting expression of angiopoietin-like 3 (ANGPTL3), and methods of use” (Arrowhead Pharmaceuticals, Inc., priority 2017, dated 2026).
In the oligonucleotide strings, read from the 5' end, every base follows the letter of its sugar. An asterisk marks phosphorothioate; unmarked linkages are phosphodiester. Other units and linkages are bracketed, terminal groups are in braces. A string of capitals states the bases alone. {NAG37} = tridentate N-acetyl-galactosamine targeting ligand, structure (NAG37)s; [invAb] = inverted abasic unit; m = 2'-O-methyl; f = 2'-fluoro

Assays:
ANGPTL3 gene [1] = experiment: Example 4: serum total cholesterol in mice; type: in vivo, C57bl/6 mice
Experimental: (§1) To assess the in vivo activity of ANGPTL3 RNAi agents that are designed to target additional positions on the ANGPTL3 gene, six- to eight-week-old female C57bl/6 mice were used. Pre-dose serum samples were taken at day −1 after a four hour fast. At day 1, each mouse was given a single subcutaneous administration of 200 μl containing either 1 mg/kg (mpk) or 0.5 mg/kg (mpk) of an ANGPTL3 RNAi agent in D5W (dextrose in 5% water), or control (D5W) with no RNAi agent, according to the dosing groups recited in Table 17.
(§2) Each of the RNAi agents included a modified sequence and an N-acetyl-galactosamine-containing targeting ligand conjugated to the 5′ terminal end of the sense strand. (See Tables 3, 4, and 5 for modified sequences and targeting ligand structures). The injections were performed between the skin and muscle (i.e. subcutaneous injections) into the loose skin over the neck and shoulder area. Three (3) mice in each group were tested (n=3). Serum was collected on days 8, 15, 22, 29, and day 43 (Groups 1-3, 9, and 11-13 only). Mice were fasted for four hours prior to each collection. ANGPTL3 protein levels in serum were measured by ELISA assay (R&D Systems), according to the manufacturer's recommendations. Triglycerides, high-density lipoprotein (HDL), and total cholesterol in serum were measured on a Cobas® Integra 400 (Roche Diagnostics), according to the manufacturer's recommendations.
(§3) The ANGPTL3 protein levels, triglyceride levels, HDL levels, and total cholesterol levels for each animal were normalized. For normalization, the level of ANGPTL3 protein, triglyceride, HDL, and total cholesterol, respectively, for each animal at a time point, was divided by the pre-treatment level of expression in that animal (in this case at day −1) to determine the ratio of expression “normalized to pre-treatment.” Expression at a specific time point was then normalized to the D5W control group by dividing the “normalized to pre-treatment” ratio for an individual animal by the mean “normalized to pretreatment” ratio of all mice in the D5W control group.

ANGPTL3 gene [2] = experiment: Example 7: serum triglycerides in mice; type: in vivo, C57bl/6 mice; design: key: ratio: (level/pre-treatment day -1 level) ÷ mean of D5W control group
Experimental: To further assess the in vivo activity of additional ANGPTL3 RNAi agents that are designed to target position 304 on the ANGPTL3 gene, six- to eight-week-old female C57bl/6 mice were used. Pre-dose serum samples were taken at day −1 after a four hour fast. At day 1, each mouse was given a single subcutaneous administration of 200 μl containing 0.5 mg/kg (mpk) of an ANGPTL3 RNAi agent in D5W (dextrose in 5% water), or control (D5W) with no RNAi agent, according to the dosing groups recited in Table 31.
as §2, with “22,” for “22, 29,”, “29.” for “day 43 (Groups 1-3, 9, and 11-13 only).”, “Triglycerides, total cholesterol,” for “Triglycerides,”, “low-density lipoprotein (LDL)” for “total cholesterol”
The ANGPTL3 protein levels, triglyceride levels, total cholesterol levels, HDL levels, and LDL levels for each animal were normalized. For normalization, the level of ANGPTL3 protein, triglyceride, HDL, and total cholesterol, respectively, for each animal at a time point, was divided by the pre-treatment level of expression in that animal (in this case at day −1) to determine the ratio of expression “normalized to pre-treatment.” Expression at a specific time point was then normalized to the D5W control group by dividing the “normalized to pre-treatment” ratio for an individual animal by the mean “normalized to pretreatment” ratio of all mice in the D5W control group.

ANGPTL3 protein = experiment: Example 3: serum ANGPTL3 protein by ELISA in mice; type: in vivo, C57bl/6 mice; details: for Avg ANGPTL3 (Average ANGPTL3 Protein Normalized to Pre-Treatment and Control): 1.0 mg/kg single subcutaneous dose on day 1, serum, female C57bl/6 mice
Experimental: as §1, with “target” for “target additional”, “positions 921 and 922” for “positions”, “(mpk)” for “(mpk) or 0.5 mg/kg (mpk)”, “12.” for “17.”
as §2, with “Serum was collected on days 8, 15, 22, 29, and day 43 (Groups 1-3, 9, and 11-13 only).” left out
as §3

ANGPTL3 gene [3] = experiment: Example 3: serum HDL in mice; type: in vivo
Experimental: as §1, with “target” for “target additional”, “positions 921 and 922” for “positions”, “(mpk)” for “(mpk) or 0.5 mg/kg (mpk)”, “12.” for “17.”
as §2, with “Serum was collected on days 8, 15, 22, 29, and day 43 (Groups 1-3, 9, and 11-13 only).” left out
as §3

[4] = Day 8, 1.0 mg/kg single SC injection on day 1, n=3
[5] = Day 15, 1.0 mg/kg single SC injection on day 1, n=3
[6] = Day 22, 1.0 mg/kg single SC injection on day 1, n=3
[7] = Day 29, 1.0 mg/kg single SC injection on day 1, n=3
[8] = Day 43, 1.0 mg/kg single SC injection on day 1, n=3
[9] = Day 8, 0.5 mg/kg single SC injection on day 1, n=3
[10] = Day 15, 0.5 mg/kg single SC injection on day 1, n=3
[11] = Day 22, 0.5 mg/kg single SC injection on day 1, n=3
[12] = Day 29, 0.5 mg/kg single SC injection on day 1, n=3
[13] = day 22, single 1 mg/kg subcutaneous, C57bl/6 mice
[14] = Day 8, 1.0 mg/kg single subcutaneous dose on day 1, female C57bl/6 mice
[15] = Day 15, 1.0 mg/kg single subcutaneous dose on day 1, female C57bl/6 mice
[16] = Day 22, 1.0 mg/kg single subcutaneous dose on day 1, female C57bl/6 mice
[17] = Day 29, 1.0 mg/kg single subcutaneous dose on day 1, female C57bl/6 mice

| Substance | Avg Total Chol, normalized to pre-treatment and control (ANGPTL3 gene [1]; [4]) | Avg Total Chol, normalized to pre-treatment and control (ANGPTL3 gene [1]; [5]) | Avg Total Chol, normalized to pre-treatment and control (ANGPTL3 gene [1]; [6]) | Avg Total Chol, normalized to pre-treatment and control (ANGPTL3 gene [1]; [7]) | Avg Total Chol, normalized to pre-treatment and control (ANGPTL3 gene [1]; [8]) | Avg TG, normalized to pre-treatment and control (ANGPTL3 gene [2]; [9]) | Avg TG, normalized to pre-treatment and control (ANGPTL3 gene [2]; [10]) | Avg TG, normalized to pre-treatment and control (ANGPTL3 gene [2]; [11]) | Avg TG, normalized to pre-treatment and control (ANGPTL3 gene [2]; [12]) | Avg ANGPTL3 (Average ANGPTL3 Protein Normalized to Pre-Treatment and Control) (ANGPTL3 protein; Day 8) | Avg ANGPTL3 (Average ANGPTL3 Protein Normalized to Pre-Treatment and Control) (ANGPTL3 protein; Day 15) | Avg ANGPTL3 (Average ANGPTL3 Protein Normalized to Pre-Treatment and Control) (ANGPTL3 protein; Day 22) | Avg ANGPTL3 (Average ANGPTL3 Protein Normalized to Pre-Treatment and Control) (ANGPTL3 protein; Day 29) | Avg HDL (Average HDL Normalized to Pre-Treatment and Control) (ANGPTL3 gene [3]; [14]) | Avg HDL (Average HDL Normalized to Pre-Treatment and Control) (ANGPTL3 gene [3]; [15]) | Avg HDL (Average HDL Normalized to Pre-Treatment and Control) (ANGPTL3 gene [3]; [16]) | Avg HDL (Average HDL Normalized to Pre-Treatment and Control) (ANGPTL3 gene [3]; [17]) | other results |
| --- | --- | --- | --- | --- | --- | --- | --- | --- | --- | --- | --- | --- | --- | --- | --- | --- | --- | --- |
| AD05488: RNAi agent duplex: antisense AM07235-AS, sense AM07234-SS (antisense mU*fA*mC*fUmGfAmUfCmAfAmAfUmAfUmGfUmUfGmAfG*mC; sense {NAG37}*[invAb]*mGmCmUmCmAmAmCmAfUfAfUmUmUmGmAmUmCmAmGmUmA*[invAb]) | 0.827 | 0.667 | 0.759 | 0.683 | 0.837 | 0.856 | 0.947 | 0.922 | 0.877 | – | – | – | – | – | – | – | – | – |
| AD05308: RNAi agent duplex: antisense AM07003-AS, sense AM07002-SS (chain 1 mU*fG*mU*fUmGfAmAfUmUfAmAfUmGfUmCfCmAfUmGfG*mA; chain 2 {NAG37}*[invAb]*mUmCmCmAmUmGmGmAfCfAfUmUmAmAmUmUmCmAmAmCmA*[invAb]) | 0.868 | 0.793 | 0.770 | 0.819 | 1.073 | 0.836 | 0.755 | 0.839 | 0.705 | 0.196 | 0.202 | 0.209 | 0.309 | 0.838 | 0.754 | 0.739 | 0.953 | ANGPTL3 protein normalized to pre-treatment and control (ANGPTL3 protein; [13]): 0.209; reduction in ANGPTL3 protein levels compared to control (ANGPTL3 protein; [13]): ~80%; Avg Total Chol, normalized to pre-treatment and control (ANGPTL3 gene [1]; [9]): 0.992; Avg Total Chol, normalized to pre-treatment and control (ANGPTL3 gene [1]; [10]): 0.838; Avg Total Chol, normalized to pre-treatment and control (ANGPTL3 gene [1]; [11]): 1.000; Avg Total Chol, normalized to pre-treatment and control (ANGPTL3 gene [1]; [12]): 0.958; Avg Total Chol, normalized to pre-treatment and control (ANGPTL3 gene [1]; Day 43, 0.5 mg/kg single SC injection on day 1, n=3): 1.157 |
| AD05307: RNAi agent duplex: antisense AM07001-AS, sense AM07000-SS (chain 1 mU*fU*mU*fGmAfAmUfUmAfAmUfGmUfCmCfAmUfGmGmG*mC; chain 2 {NAG37}*[invAb]*mGmCmCmCmAmUmGmGfAfCfAmUmUmAmAmUmUmCmAmAmA*[invAb]) | – | – | – | – | – | – | – | – | – | 0.323 | 0.311 | 0.346 | 0.486 | 0.916 | 0.856 | 0.913 | 1.053 | – |
| AD05418: RNAi agent duplex: antisense AM07159-AS, sense AM07158-SS (antisense mU*fU*mU*fGmAfAmUfUmAfAmUfGmUfCmCfAmUfGmGfG*mU; sense {NAG37}*[invAb]*mAmCmCmCmAmUmGmGfAfCfAmUmUmAmAmUmUmCmAmAmA*[invAb]) | 0.818 | 0.761 | 0.915 | 0.853 | 1.002 | 0.830 | 0.655 | 0.815 | 0.586 | 0.236 | 0.290 | 0.394 | 0.517 | 0.766 | 0.823 | 0.910 | 0.916 | – |
